From patent EP0446748A2, “Use of perylenedyes for the preparation of write, print or copying materials” (priority 1990, dated 1991) come the findings set out here.

This series in a line: Solubility of the dyes in organic solvent, determined after one week of the solution in contact with the solid dye with occasional shaking. Type of series: physicochemical. The following applies: 10080 min; for Löslichkeit (CHCl₃/20^oC) / Löslichkeit (n-Heptan/20^oC): 20 °C; for Löslichkeit (CHCl₃) / Löslichkeit (n-Heptan): temperature not given. The text has this:
Die Perylenfarbstoffe werden aus technischen Perylen-3,4:9,10-tetracarbonsäurebisanhydrid (2,55 mmol), dem entsprechenden primären Amin oder dem Aminhydrochlorid (6 mmol) und Imidazol (5 g) dargestellt und werden entsprechend der Literatur gereinigt (siehe z.B. Chem. Ber. 118 4641 (1985) und Chem. Ber. 121 225 (1988)). Die Angaben beziehen sich auf die Darstellung von hochreine Farbstoffen. Die Perylenfarbstoffe der allgemeinen Formel I mit R¹ = R² = Hexyl, Dodecyl, Octadecyl, Cycloalkyl bis zu Cyclopentadecyl und sec-Alkyl bis 1-Hexylheptyl sind in Chem. Ber. 121 225 (1988) beschriebn. Die Löslichkeiten der Farbstoffe sind nach einer Woche der Lösung mit dem festen Farbstoff bei gelegentlichem Umschütteln bestimmt worden.

In the case of `CCCCN1C(=O)c2ccc3c4ccc5c6c(ccc(c7ccc(c2c37)C1=O)c64)C(=O)N(CCCC)C5=O` [N,N'-Di(1-butyl)perylen-3,4:9,10-bis(dicarboximid)], the “Löslichkeit (CHCl₃/20^oC)” value was 8,9 mg/100 ml.
Regarding `O=C1c2ccc3c4ccc5c6c(ccc(c7ccc(c2c37)C(=O)N1C1CCCCCCCCCCCCCCC1)c64)C(=O)N(C1CCCCCCCCCCCCCCC1)C5=O` [N,N'-Dicyclohexadecylperylen-3,4:9,10-bis(dicarboximid)], the “Löslichkeit (CHCl₃)” value turned out to be 0.56 g/100ml.
For `CCCCCCCCCCCCCCCCCCN1C(=O)c2ccc3c4ccc5c6c(ccc(c7ccc(c2c37)C1=O)c64)C(=O)N(CCCCCCCCCCCCCCCCCC)C5=O` [N,N'-Di(n-octadecyl)perylen-3,4:9,10-bis(dicarboximid)], the “Löslichkeit (CHCl₃)” value is on record as 1,8 mg/100 ml.
For `CCCCCCCC(CCCCCCC)N1C(=O)c2ccc3c4ccc5c6c(ccc(c7ccc(c2c37)C1=O)c64)C(=O)N(C(CCCCCCC)CCCCCCC)C5=O` [N,N'-Di(1-heptyloctyl)perylen-3,4:9,10-bis(dicarboximid)], the “Löslichkeit (n-Heptan/20^oC)” value turned out to be 0.59 g/100ml.
Regarding `CCCCCCCCCC(CCCCCCCCC)N1C(=O)c2ccc3c4ccc5c6c(ccc(c7ccc(c2c37)C1=O)c64)C(=O)N(C(CCCCCCCCC)CCCCCCCCC)C5=O` [N,N'-Di(1-nonyldecyl)perylen-3,4:9,10-bis(dicarboximid)], the “Löslichkeit (n-Heptan)” value was determined as 35 g/100 ml.
`CCCN1C(=O)c2ccc3c4ccc5c6c(ccc(c7ccc(c2c37)C1=O)c64)C(=O)N(CCC)C5=O` [N,N'-Di(1-Propyl)perylen-3,4:9,10-bis(dicarboximid)]: the “Löslichkeit (CHCl₃/20^oC)” value is on record as 5,3 mg/100 ml.
As to `CCCCCCCCCCCCC(CCCCCCCCCCCC)N1C(=O)c2ccc3c4ccc5c6c(ccc(c7ccc(c2c37)C1=O)c64)C(=O)N(C(CCCCCCCCCCCC)CCCCCCCCCCCC)C5=O` [N,N'-Di(1-dodecyltridecyl)perylen-3,4:9,10-bis(dicarboximid)], the “Löslichkeit (n-Heptan)” value turned out to be 67 mg/100 ml.
For `CCCCCCCCCCCCCCN1C(=O)c2ccc3c4ccc5c6c(ccc(c7ccc(c2c37)C1=O)c64)C(=O)N(CCCCCCCCCCCCCC)C5=O` [N,N'-Di(n-tetradecyl)perylen-3,4:9,10-bis(dicarboximid)], the “Löslichkeit (CHCl₃)” value is 5.4 mg/100 ml.
For the molecule `CCCCCCCCC(CCCCCCCC)N1C(=O)c2ccc3c4ccc5c6c(ccc(c7ccc(c2c37)C1=O)c64)C(=O)N(C(CCCCCCCC)CCCCCCCC)C5=O` [N,N'-Di(1-octylnonyl)perylen-3,4:9,10-bis(dicarboximid)], the “Löslichkeit (n-Heptan/20^oC)” value was 0.30 g/100ml.
For `CCCCCN1C(=O)c2ccc3c4ccc5c6c(ccc(c7ccc(c2c37)C1=O)c64)C(=O)N(CCCCC)C5=O` [N,N'-Di(1-pentyl)perylen-3,4:9,10-bis(dicarboximid)], the “Löslichkeit (CHCl₃/20^oC)” value was found to be 47 mg/100 ml.
Regarding `CCCCCCCCCCCCCCCCN1C(=O)c2ccc3c4ccc5c6c(ccc(c7ccc(c2c37)C1=O)c64)C(=O)N(CCCCCCCCCCCCCCCC)C5=O` [N,N'-Di(n-hexadecyl)perylen-3,4:9,10-bis(dicarboximid)], the “Löslichkeit (CHCl₃)” value was determined as 6.0 mg/100 ml.
For `CCCCCCCCCCCCCCCCC(CCCCCCCCCCCCCCCC)N1C(=O)c2ccc3c4ccc5c6c(ccc(c7ccc(c2c37)C1=O)c64)C(=O)N(C(CCCCCCCCCCCCCCCC)CCCCCCCCCCCCCCCC)C5=O` [N,N'-Di(1-hexadecylheptadecyl)perylen-3,4:9,10-bis(dicarboximid)], the “Löslichkeit (n-Heptan)” value came out at 0.13 g/100 ml.
As for `CCCCCCCCCCC(CCCCCCCCCC)N1C(=O)c2ccc3c4ccc5c6c(ccc(c7ccc(c2c37)C1=O)c64)C(=O)N(C(CCCCCCCCCC)CCCCCCCCCC)C5=O` [N,N'-Di(1-decylundecyl)Perylen-3,4:9,10-bis(dicarboximid)], the “Löslichkeit (n-Heptan)” value came to 4.8 g/100 ml.
Turning to `CCCCCCCCCCCCCCCCCCC(CCCCCCCCCCCCCCCCCC)N1C(=O)c2ccc3c4ccc5c6c(ccc(c7ccc(c2c37)C1=O)c64)C(=O)N(C(CCCCCCCCCCCCCCCCCC)CCCCCCCCCCCCCCCCCC)C5=O` [N,N'-Di(1-octadecylnonadecyl)perylen-3,4:9,10-bis(dicarboximid)], the “Löslichkeit (n-Heptan)” value was determined as 26 mg/100 ml.
For the molecule `CCCCCCCCCN1C(=O)c2ccc3c4ccc5c6c(ccc(c7ccc(c2c37)C1=O)c64)C(=O)N(CCCCCCCCC)C5=O` [N,N'-Di(n-nonyl)perylen-3,4:9,10-bis(dicarboximid)], the “Löslichkeit (CHCl₃/20^oC)” value worked out at 11 mg/100 ml.
